Experimental data from patent publication US20220202801A1, “USE OF COMPOUND IN PREPARATION OF DRUG FOR TREATING ATHEROSCLEROSIS” (GenEros Biopharma Ltd., priority 2019, published 2022).

Columns and labels:
ApoE knockout mice [1] = test: Four blood lipids in serum of ApoE knockout mice (Example 1); format: in vivo; details: for HDL-C / LDL-C / TC / TG: serum
Excerpt: (§1) Methods: SPF grade C57BL/6 ApoE −/−model mice were provided by Guangdong Medical Experimental Animal Center, laboratory animal production license No. SOCK (Guangdong) 2013-0002. Laboratory animal quality certificate number: 44007200048196). Mice were half male and half female, aged 8 to 12 weeks, and 72 animals in total. After four weeks of housing in a SPF-level animal facility, animals with less body weights were disposed. A total of 64 animals were randomly divided into 8 groups, 8 in each group, fed with 10% high-fat food, and received with different treatments. Animals were observed and administered with the medicines by gavage once daily. The body weights were measured once a week and continued for 58 days. […] The test sample was dissolved in dimethyl sulfoxide solution and prepared with 30% PEG300.
At the end of the experiment, animals were anesthetized with pentobarbital sodium. Blood was collected from the orbital venous plexus, and centrifuged at 3000 r/min at a low temperature for 10 min to separate the serum. The levels of total cholesterol TC, triglyceride TG, high-density lipoprotein HDL-C, and low-density lipoprotein LDL-C were measured, and the remaining serum was stored in a refrigerator at −80° C.
Statistical analysis: Data were expressed as the mean plus or minus the standard deviation (x± s), and analyzed by SPSS21.0 statistical software. […] The level of test is α=0.05.

[2] = tested on: atherosclerotic lesions in ApoE knockout mice; test: Aortic HE and oil red O staining, atherosclerotic lesion scores (Example 1); format: in vivo; details: for Mild n (number of animal cases with mild lesions) / Moderate n (number of animal cases with moderate lesions) / No lesion n (number of animal cases) / Severe n (number of animal cases with severe lesions): of 8 animals; for animals that had atherosclerosis (histological observation): of 8 aortas examined
Excerpt: as §1
(§2) After blood collection, the animals were sacrificed, and the aortic arch together with the heart and thoracic aorta were fixed with neutral formaldehyde and subject to pathological examination. The abdominal aorta was collected and quick-frozen in liquid nitrogen, and stored at −80° C.
a) HE staining: aortic arch was sliced and HE stained. The plaques were observed under optical microscope.
b) Oil red O staining: aortic arch was sliced and oil red O stained. The plaques were observed under optical microscope.

VCAM-1 = test: Immunohistochemistry of aortic wall, VCAM-1; format: in vivo, mice; details: for aorta (VCAM-1) signal expression in blood vessels: IHC-P×400, single animal micrograph; for VCAM-1 average optical density: aortic wall
Excerpt: as §1, §2
(§3) c) Immunohistochemistry: The thoracic aorta was sliced and detected by immunohistochemistry for the expression of CD68, intercellular adhesion molecule-1 (ICAM-1), and vascular cell adhesion Molecule-1 (VCAM-1).

CD68 = test: Immunohistochemistry of aortic wall, CD68; format: in vivo, mice; details: for aorta (CD68) signal expression in blood vessels: IHC-P×400, single animal micrograph; for CD68 average optical density: aortic wall
Excerpt: as §1, §2, §3

ApoE knockout mice [3] = test: Blood lipid metabolism TG, TCHO, HDL-c, LDL-c (Example 2); format: in vivo
Excerpt: Methods: A total of 130 SPF grade C57BL/6 ApoE −/− model male mice aged 8 weeks were purchased from Charles River Laboratories (Beijing, China) (animal license number: SCXK (Beijing) 2016-0001, animal qualification certificate No.: 11400700331337). After one week of acclimatization in a SPF-grade animal facility, the animals with less weights were discarded and the rest was randomly divided into 11 groups, with 8 animals in each group. Except for the healthy control group, the rest were fed with 10% high-fat food (the first day of the high-fat diet was recorded as D1). Starting from the 8th week of the high-fat diet, each group of animals was orally given solvents or corresponding drugs, and the volume of administration was 10 ml/kg, once a day for 8 weeks. Animals were observed and administered by gavage once a day and the body weight were measured once a week for 56 days. […] The store solution of the test samples was dissolved in dimethyl sulfoxide solution and prepared with 30% PEG300.
At the end of the experiment, the animals were euthanized by inhalation of carbon dioxide. Blood was taken from the heart, and centrifuged at 3000 r/min at a low temperature centrifuge for 10 min to separate the serum. The levels of total cholesterol TC, triglyceride TG, high-density lipoprotein HDL-C, and low-density lipoprotein LDL-C were measured, and the remaining serum was stored in a refrigerator at −80° C.
Before the start of the experiment, animal blood samples were analyzed for blood lipid metabolism, including conventional triglyceride (TG), total cholesterol (TCHO), high-density lipoprotein (HDL-c) and low-density lipoprotein (LDL-c). After high-fat or ordinary food feeding for 8 weeks, the blood lipid levels were measured again. After the drug treatment was started, blood lipid measurements were performed every four weeks until the end of the experiment.

[4] = half male and female, 2 mg/kg body weight
[5] = half male and female, 5 mg/kg body weight
[6] = half male and female, 10 mg/kg body weight
[7] = ♀, 2 mg/kg gavage QD, 58 days, 2 mg/kg
[8] = ♀, 2 mg/kg gavage QD, 58 days, listed as Nib1, 2 mg/kg
[9] = ♀, 10 mg/kg gavage QD, 58 days, 10 mg/kg
[10] = ♀, 10 mg/kg gavage QD, 58 days, listed as Nib1, 10 mg/kg

## O=c1[nH]c2ccccc2n1C1CCN(CCCC(c2ccc(F)cc2)c2ccc(F)cc2)CC1 [Sample A]
ApoE knockout mice [1]; Example 1, overall
  regulation on blood lipid levels (overall): have the effect of improving blood lipids
ApoE knockout mice [1]; [4]
  HDL-C: 1.80 ± 0.62 mmol/L
  LDL-C: 6.23 ± 2.86 mmol/L
  TC: 19.86 ± 6.92 mmol/L
  TG: 1.18 ± 0.70 mmol/L
ApoE knockout mice [1]; [5]
  LDL-C: 6.09 ± 2.12 mmol/L
  TC: 20.87 ± 6.13 mmol/L
  TG: 0.82 ± 0.17 mmol/L
ApoE knockout mice [1]; half male and female, 5 mg/kg body weight, 5 mg/kg
  HDL-C: 1.63 ± 0.28 mmol/L
ApoE knockout mice [1]; half male and female, 5 mg/kg body weight, listed as sample A, 5 mg/kg
  HDL-C: lower
ApoE knockout mice [1]; [6]
  LDL-C: 5.82 ± 2.13 mmol/L
  TC: 19.85 ± 6.26 mmol/L
  TG: 0.89 ± 0.20 mmol/L
ApoE knockout mice [1]; half male and female, 10 mg/kg body weight, 10 mg/kg
  HDL-C: 1.62 ± 0.35 mmol/L
ApoE knockout mice [1]; half male and female, 10 mg/kg body weight, listed as sample A, 10 mg/kg
  HDL-C: lower
ApoE knockout mice [1]; ♀, 2 mg/kg gavage QD, 58 days
  TG: 0.86 ± 0.16 mmol/L
ApoE knockout mice [1]; [7]
  LDL-C: 3.86 ± 0.95 mmol/L
  TC: 13.88 ± 1.77 mmol/L
ApoE knockout mice [1]; [8]
  LDL-C: decreased
  TC: decreased
ApoE knockout mice [1]; ♀, 5 mg/kg gavage QD, 58 days
  LDL-C: 4.30 ± 0.39 mmol/L
  TC: 15.41 ± 1.32 mmol/L
  TG: 0.70 ± 0.11 mmol/L
ApoE knockout mice [1]; ♀, 10 mg/kg gavage QD, 58 days
  TG: 0.76 ± 0.07 mmol/L
ApoE knockout mice [1]; [9]
  LDL-C: 3.86 ± 0.38 mmol/L
  TC: 14.07 ± 0.64 mmol/L
ApoE knockout mice [1]; [10]
  LDL-C: decreased
  TC: decreased
ApoE knockout mice [1]; ♂, 2 mg/kg gavage QD, 58 days
  HDL-C: 2.26 ± 0.54 mmol/L
  LDL-C: 8.60 ± 1.79 mmol/L
  TC: 25.84 ± 3.63 mmol/L
  TG: 1.51 ± 0.92 mmol/L
ApoE knockout mice [1]; ♂, 5 mg/kg gavage QD, 58 days
  HDL-C: 1.83 ± 0.24 mmol/L
  LDL-C: 7.87 ± 1.38 mmol/L
  TC: 26.34 ± 2.50 mmol/L
  TG: 0.94 ± 0.15 mmol/L
ApoE knockout mice [1]; ♂, 10 mg/kg gavage QD, 58 days
  HDL-C: 1.92 ± 0.18 mmol/L
  LDL-C: 7.78 ± 0.40 mmol/L
  TC: 25.64 ± 1.32 mmol/L
  TG: 1.02 ± 0.22 mmol/L
[2]; medium doses, preventive treatment
  formation of arterial plaque (pathological results): could delay the formation of arterial plaque in ApoE knockout mice to a certain extent
[2]; 2 mg/kg body weight
  Mild n (number of animal cases with mild lesions): 4
  Moderate n (number of animal cases with moderate lesions): 0
  No lesion n (number of animal cases): 1
  Severe n (number of animal cases with severe lesions): 3
[2]; 5 mg/kg body weight
  Mild n (number of animal cases with mild lesions): 5
  Moderate n (number of animal cases with moderate lesions): 0
  No lesion n (number of animal cases): 3
  Severe n (number of animal cases with severe lesions): 0
[2]; 10 mg/kg body weight
  Mild n (number of animal cases with mild lesions): 1
  Moderate n (number of animal cases with moderate lesions): 2
  No lesion n (number of animal cases): 2
  Severe n (number of animal cases with severe lesions): 3
[2]; 2 mg/kg
  animals that had atherosclerosis (histological observation): 7 cases
[2]; 5 mg/kg
  animals that had atherosclerosis (histological observation): 5 cases
[2]; 10 mg/kg
  animals that had atherosclerosis (histological observation): 6 cases
[2]; overall, aortic pathology Example 1
  effect on atherosclerotic lesions compared with the statin group: equivalent to or better than that of the statin group
[2]; score 0-3 per Table 8, 2 mg/kg body weight
  Scores (atherosclerotic lesion score, average of the group): 1.62 ± 1.19
[2]; score 0-3 per Table 8, 5 mg/kg body weight
  Scores (atherosclerotic lesion score, average of the group): 0.62 ± 0.52
[2]; score 0-3 per Table 8, 5 mg/kg body weight, listed as sample A
  Scores (atherosclerotic lesion score, average of the group): lower than the model control group
[2]; score 0-3 per Table 8, 10 mg/kg body weight
  Scores (atherosclerotic lesion score, average of the group): 1.75 ± 1.28
VCAM-1; 2 mg/kg
  aorta (VCAM-1) signal expression in blood vessels: low to medium
VCAM-1; 5 mg/kg
  aorta (VCAM-1) signal expression in blood vessels: low to medium
VCAM-1; 10 mg/kg
  aorta (VCAM-1) signal expression in blood vessels: low to medium
VCAM-1; 2 mg/kg gavage QD
  VCAM-1 average optical density: 1.41 ± 0.34 ×10^−2
VCAM-1; 5 mg/kg gavage QD, 5 mg/kg
  VCAM-1 average optical density: 0.77 ± 0.46 ×10^−2
VCAM-1; 5 mg/kg gavage QD, listed as Nib1, 5 mg/kg
  VCAM-1 average optical density: reduced expression
VCAM-1; 5 mg/kg gavage QD, listed as sample A, 5 mg/kg
  VCAM-1 average optical density: lower than the model control group
VCAM-1; 10 mg/kg gavage QD, 10 mg/kg
  VCAM-1 average optical density: 0.49 ± 0.51 ×10^−2
VCAM-1; 10 mg/kg gavage QD, listed as sample A, 10 mg/kg
  VCAM-1 average optical density: lower than the model control group
CD68; 2 mg/kg
  aorta (CD68) signal expression in blood vessels: low to medium
CD68; 5 mg/kg
  aorta (CD68) signal expression in blood vessels: low to medium
CD68; 10 mg/kg
  aorta (CD68) signal expression in blood vessels: low to medium
CD68; 2 mg/kg gavage QD
  CD68 average optical density: 2.78 ± 2.01 ×10^−2
CD68; 5 mg/kg gavage QD
  CD68 average optical density: 1.39 ± 0.67 ×10^−2
CD68; 10 mg/kg gavage QD
  CD68 average optical density: 1.86 ± 1.60 ×10^−2
ApoE knockout mice [3]
  effect on high-density lipoprotein (HDL-c) level compared with the vehicle group: significantly reduce
  effect on low-density lipoprotein (LDL-c) level compared with the vehicle group: significantly reduce
  effect on total cholesterol (TCHO) level compared with the vehicle group: significantly reduce
  effect on triglyceride (TG) level compared with the vehicle group: significantly reduce
